Data on two molecules can be found in patent publication US20220305037A1, “Treatment of Cancer” (Sumitomo Dainippon Pharma Oncology, Inc., priority 2019, published 2022).

Data set [1] relates to patients with newly diagnosed, previously untreated AML. Briefly: Phase 1 dose-escalation study of alvocidib followed by cytarabine/daunorubicin (7+3): response assessment by ELN Guidelines. Type of data set: in vivo, human. Here is the method: Methods: Study Population. This was a Phase 1, open-label, multicenter, dose-escalation study of alvocidib followed by cytarabine/daunorubicin (7+3) in patients with AML (NCT03298984). Patients aged 18-65 years with newly diagnosed, previously untreated AML and pathological confirmation of bone marrow (BM) blasts ≥20% were eligible. Key inclusion criteria included: Eastern Cooperative Oncology Group (ECOG) performance status (PS) ≤2, serum creatinine level ≤1.8 mg/dL, alanine aminotransferase (ALT) and aspartate aminotransferase (AST) ≤5 times upper limit of normal (ULN), total bilirubin ≤2.0 mg/dL, and left ventricular ejection fraction (EF) >45%. Patients were excluded if they had previous treatment for AML (with the exception of hydroxyurea), and were diagnosed with acute promyelocytic leukemia (APL-M3) or core-binding factor AML ((CBF-AML: t(8;21); inv(16); t(16;16)). All patients provided written informed consent. This study was conducted as per the Declaration of Helsinki after approval by ethics committee of each participating center.
Treatment Plan: Induction.
Consolidation. Patients who achieved a complete remission (CR) received 2 to 4 cycles of consolidation therapy with high dose cytarabine (HiDAC) 3 gm/m^2 IV every 12 hours on days 1, 3 and 5 upon full hematological recovery (absolute neutrophil count >1×10^−3/L and platelets >1×10^1/L). HiDAC was permitted to be dose reduced to 1.5 gm/m^2 IV every 12 hours on days 1, 3 and 5 in those >60 years. Allogeneic stem cell transplantation was permitted after induction per standard of care but was recommended after at least 1 cycle of HiDAC consolidation in those who achieved CR.
Response Assessments. Response assessment was performed by a bone marrow aspirate and biopsy at the time of full hematologic recovery or by day 50 and day 60 of 1 versus 2 induction cycles, respectively. Response to therapy was assessed by standardized ELN Guidelines. In those who achieved CR and received consolidation therapy, a bone marrow aspirate and biopsy was performed after cycle 2 of HiDAC, after completion of consolidation therapy, and at any suspicion of relapse.
(§1) Statistical Analysis. […] Intra-patient dose escalation was not permitted. […] Database lock was on Apr. 30, 2020.

For data set [2] the test system is unchanged. The experiment in a line: Minimal residual disease (MRD) analysis of bone marrow by flow cytometry in the Phase 1 study. The data set is classed as in vivo, human. Here is the method: Minimal Residual Disease (MRD) Analysis. MRD was assessed in bone marrow samples at the time of response by a uniform central assay (Hematologics, Inc.) in an exploratory cohort, as has been previously described. Samples were first incubated with antibodies for 20 minutes at room temperature. Red blood cells were then lysed at 37° C. using buffered NH4Cl for 5 minutes, followed by centrifugation at 300 g. Cells were subsequently washed with PBS supplemented with 2% FCS and resuspended in 1% paraformaldehyde. Samples were analyzed on a FACSCalibur™ flow cytometer (Becton Dickinson Biosciences). 200,000 events were analyzed for each sample. Data analysis was performed with WinList™ software (Verity Software House). Two independent reviewers viewed each sample to arrive at a consensus on the data.

Data set [3] has the same test system. The experiment in a line: Kaplan-Meier time-to-event analyses and clinical outcomes (OS, EFS, RFS, relapse) in the Phase 1 study. The data set is classed as in vivo, human.
From the text: as §1

Data set [4] has the same test system. As to the method:
Treatment Plan: Induction. Alvocidib was dose-escalated starting at dose level 1: 20 mg/m^2 30-minute IV bolus followed by 30 mg/m^2 IV infusion over 4 hours on Days 1-3 (FIG. 1). Daunorubicin 60 mg/m^2 IV bolus over 15 minutes was initiated on days 5-7, and cytarabine 100 mg/m^2/day IV continuous 24-hour infusion was administered on Days 5-11. A bone marrow aspirate and biopsy was performed on day 14 (+/−3 days) and patients with residual leukemia (>5% bone marrow blasts and >10% cellularity) were recommended to receive a second induction cycle with alvocidib on days 1-3 (same dose level as induction) followed by daunorubicin 45 mg/m^2/day IV over 15 minutes on days 5 and 6 and cytarabine 100 mg/m^2/day IV continuous infusion over days 5-9 (“5+2”).
Statistical Analysis. Alvocidib dose was escalated using a 3+3 design (FIG. 1). Successive cohorts of patients (3-6 per cohort) were treated with escalated doses until the maximal tolerated dose (MTD) was established. Intra-patient dose escalation was not permitted. Descriptive analysis was performed for the safety and efficacy endpoints. MTD for alvocidib was estimated by the highest alvocidib dose for which the incidence of DLT during Cycle 1 was less than 33% in combination with 7+3. Kaplan-Meier time-to-event analyses were performed on overall survival (OS), relapse-free survival and duration of remission. […]

For data set [5], the system named is MDS blasts. The experiment in a line: MCL-1 dependency assay of MDS blasts after azacitidine pre-treatment. The data set is classed as cell-based, human. As to conditions: patient sample MDS1060; MCL-1 dependency cut-off of 40%. As to the method: CD13, CD33, CD34, CD45, CD3 and CD20 were used as markers to identify MDS blasts, and to perform MCL-1 dependency analyses. MDS blasts were positive for CD13, CD33 and CD34, dim for CD45 and negative for CD3 and CD20.
On day 1 of the MCL-1 dependency assay, 5×10^4-1×10^5 HS-5 feeder cells were plated into a 6-well plate, and allowed to attached overnight. HS-5 feeder cells improve viability of frozen MDS bone marrow mononuclear cells (BMMCs) after thawing. On day 2 of the assay, MDS BMMCs were thawed, and divided into three treatment groups corresponding to treatment with DMSO, treatment with 1 μM azacitidine or treatment with 2.5 μM azacitidine. On day 4, after a 48-hour treatment period, MCL-1 dependency of MDS blasts, lymphocytes and monocytes were separately assessed.

Data set [6] deals with MCL-1 protein levels in blasts. As to conditions: cited from earlier work.

Take `CN1CC[C@H](c2c(O)cc(O)c3c(=O)cc(-c4ccccc4Cl)oc23)[C@H](O)C1` [alvocidib, 2-(2-chlorophenyl)-5,7-dihydroxy-8-[(3S,4R)-3-hydroxy-1-methylpiperidin-4-yl]chromen-4-one]: the “differences in response to alvocidib in patients with or without MCL-1 dependence” value in data set [1] (MCL-1 dependence threshold priming >30%, exploratory analysis) is “No significant differences”. Besides, in data set [1] (all enrolled, 3 patients, re-induction with alvocidib and 5+2), the “patients who received re-induction for residual leukemia on day 14” value is listed as 9%. For the same molecule, in data set [1] (genomic class AML with NPM1 mutation (8/10)), the CR rate is on record as 80%. Besides, in data set [1] (re-induction with alvocidib and 5+2), the “CR among patients who received re-induction therapy” value was “None”. Also, the “MRD-negative among CR patients with ELN adverse-risk disease” value in data set [2] (4/9, flow cytometry and/or institutional standard assessment) is given as 44%. The “MRD-negative CR in ELN adverse-risk patients” value in data set [2] (exploratory cohort, 3 out of 4) stood at 75%. The “patients who achieved CR without MRD and remain in CR” value in data set [3] (9 patients) amounted to 82%. The “median OS” value in data set [3] (32 patients, median follow-up 9.2 months) is recorded as “not reached”. Further, in data set [3] (CR patients relapsed to date), the “duration of CR, range” value is 1.4-13.6 months. In addition, the “CR patients relapsed to date” value in data set [3] (of the 22 CR patients, 7 patients) is 32%. Besides, the “median RFS” value in data set [3] (time from CR/CRi up to disease relapse or death) is given as “not reached”. Besides, the “patients who achieved CR without evidence of MRD and relapsed” value in data set [3] (two patients) is listed as 18%. Moreover, the “MTD (alvocidib dose)” value in data set [4] (IV bolus/IV infusion on Days 1-3, in combination with 7+3) was “(30/60 mg/m^2)”. Moreover, in data set [4] (in vivo), the “safety and feasibility of alvocidib administration prior to 7+3 induction” value is on record as “safe, feasible”.

Consider `Nc1ncn([C@@H]2O[C@H](CO)[C@@H](O)[C@H]2O)c(=O)n1` [azacitidine], for which the “change of MCL-1 dependency status of blasts” value in data set [5] was “rendered MCL-1-independent blasts MCL-1 dependent”. The “effect on MCL-1 protein levels in blasts” value in data set [6] is reported as “reduce MCL-1 protein levels in blasts”.
